Assay results reported in patent US20230071463A1, “SOLID STATE FORMS OF […] AND PROCESS FOR PREPARATION THEREOF” (TEVA PHARMACEUTICALS INTERNATIONAL GMBH, priority 2020, published 2023).

Key:
[1] = Solid state stability on exposure to high relative humidity; format: physicochemical
[2] = Solid state stability on exposure to high temperatures and high relative humidity; format: physicochemical

Compound	stability when exposed to high relative humidity [1]	stability when exposed to high temperatures and high relative humidity [2]
[Cl][Mn-5]1234([Cl])[n+]5c6cccc5C[NH+]1[C@H]1CCCC[C@@H]1[NH+]2CC[NH+]3[C@H]1CCCC[C@@H]1[NH+]4C6 (some centres unmarked) [Form AM1, Avasopasem manganese]	stable	–
[Cl][Mn-5]1234([Cl])[n+]5c6cccc5C[NH+]1[C@H]1CCCC[C@@H]1[NH+]2CC[NH+]3[C@H]1CCCC[C@@H]1[NH+]4C6 (some centres unmarked) [Form AM2, Avasopasem manganese]	–	stable
